The text below walks through data of patent publication US6906046B2 (Celltech R & D Inc., priority 2000, dated 2005).

Assay [1] concerns NFκB. In words: NFκB luciferase reporter assay in TNF-α stimulated A549 cells (E-selectin promoter). Type of assay: cell-based. The conditions noted are these: Homo sapiens; A549 cells with NFκB luciferase reporter, TNF-α at its EC50, 5 hours; % inhibition or IC50 in μM; read-out: NFkB inh. Here is the method:
A549 cells were stably transfected with an E-selectin promoter containing three NFκB binding sites driving luciferase expression. For the assay, 5×10^4 cells were incubated in 96 well round bottom plates overnight in 100 μL of 10% FBS/RPMI medium at 37° C. in a 5% CO2 atmosphere. The following morning the medium was removed and 90 μL of a 1% DMSO solution of test compound solution was added and the plates incubated for 1 hour. 10 μL of TNF-α was added at its EC50 (normally 6 ng/mL FAC) to each well and the plate incubated for 5 hours. 100 μL of luciferase buffer was added, and after 10 minutes luminescence was read on a Wallac Victor 1420 Multilabel Counter. The data obtained from the Wallac Victor was converted into % inhibition data or IC50 measured in μM.

The target of assay [2] is T1, CXCR1 (Homo sapiens, UniProt P25024).
T1 construct: host or cells: CHO cells
T1 sequence (P25024 1-350): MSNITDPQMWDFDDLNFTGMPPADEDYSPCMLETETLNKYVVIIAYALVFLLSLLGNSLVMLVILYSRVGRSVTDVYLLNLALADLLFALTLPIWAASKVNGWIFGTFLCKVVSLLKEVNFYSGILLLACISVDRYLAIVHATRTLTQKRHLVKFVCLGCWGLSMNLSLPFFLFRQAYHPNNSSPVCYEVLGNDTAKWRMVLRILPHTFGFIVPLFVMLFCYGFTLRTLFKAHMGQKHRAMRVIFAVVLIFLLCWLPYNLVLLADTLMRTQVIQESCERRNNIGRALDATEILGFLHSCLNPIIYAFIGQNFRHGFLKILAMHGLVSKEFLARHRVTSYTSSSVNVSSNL
In words: CXCR1 radioligand binding assay with 125I labeled IL-8. The conditions noted are these: human recombinant CHO cells. An excerpt: (§1) This assay is a radioligand binding assay in human recombinant CHO cells with ^125I labeled IL-8 as the ligand. The assay procedure is described in Ahuja, S. K.; Murphy, P. M;.

In assay [3] the test system is A549 cells. Kind of assay: Inhibition of TNF-α induced apoptosis in A549 cells (crystal violet). The class given is cell-based. The conditions noted are these: Homo sapiens; A549 cells, actinomycin-D + TNF-α at its EC50, 18 hours; percent inhibition at 20 μM or IC50 in μM; read-out: Apopt. Inh. Here is the method:
The protocol used for determining inhibition of apoptosis in A549 cells was adopted from a system previously described (K. Last-Barney et al., J. of Immunology 141:527-530, 1988). Briefly, 10^5 cells in 200 μL 10% FBS/RPMI antibiotic containing culture medium were plated into 96 well round bottom culture plates and allowed to adhere for 6 hours at 37° C. in a 5% CO2 atmosphere. The media was removed and 100 μL of RPMI+1 μg/mL actinomycin-D was added to each well, followed by 90 μL of test compound solution in 1% DMSO. This was incubated for 1 hour 10 AL TNF-α was added at its EC50 (normally 1 ng/mL FAC) and the plates incubated for 18 hours. The media was aspirated from the plates and 100 μL of 0.5% crystal violet in 20% methanol was added. After 10 minutes the plates were rinsed with water to remove excess stain, air dried, and read on a Spectramax at a wavelength of 590 nm. The data obtained from the Spectramax was converted into percent inhibition data at a concentration of 20 μM or IC50 measured in μM.

The target of assay [4] is T2, CXCR2 (Homo sapiens, UniProt P25025).
T2 construct: host or cells: CHO cells
T2 sequence (P25025 1-360): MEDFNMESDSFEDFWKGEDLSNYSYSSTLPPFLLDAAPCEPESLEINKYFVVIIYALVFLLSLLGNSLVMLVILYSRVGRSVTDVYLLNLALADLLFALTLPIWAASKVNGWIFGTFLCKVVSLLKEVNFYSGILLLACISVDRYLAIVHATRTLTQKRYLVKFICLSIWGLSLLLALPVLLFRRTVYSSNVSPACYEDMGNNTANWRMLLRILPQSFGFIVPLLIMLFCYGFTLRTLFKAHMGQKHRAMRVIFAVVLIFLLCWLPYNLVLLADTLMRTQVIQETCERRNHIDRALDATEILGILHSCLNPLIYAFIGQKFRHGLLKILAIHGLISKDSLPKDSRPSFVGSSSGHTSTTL
In words: CXCR2 radioligand binding assay with 125I labeled IL-8. The conditions noted are these: human recombinant CHO cells.
Text: as §1

Molecules are shown by their SMILES.

Take `CCCOC(=O)C1C(C(=O)OCC[Si](C)(C)C)C2C/C(=N\Nc3ccccc3)[C@H]1c1cc(O)ccc12` (some centres unmarked) [Example 111]: the IC50 in assay [1] was 10 to 50 µM; in assay [2] (percent inhibition or IC50, read-out: CXCR1 inh.) it was less than 10 µM; in assay [3], less than 10 µM; in assay [4] (percent inhibition or IC50, read-out: CXCR2 2 inh.), less than 10 µM.

Regarding `CCCOC(=O)C1C(C(=O)OCC[Si](C)(C)C)C2C/C(=N\Oc3ccccc3)[C@H]1c1cc(O)ccc12` (some centres unmarked) [Example 116], the IC50 was 10 to 50 µM in assay [1] and less than 10 µM in assay [3]. Also, the CXCR1 inh. result in assay [2] (percent inhibition or IC50) is given as “* (refers to percent inhibition from 10-36%)”. Besides, the “CXCR2 2 inh.” value in assay [4] (percent inhibition or IC50) is reported as “* (refers to percent inhibition from 10-36%)”.
